Entries after “also recorded” stand apart in the source; their conditions may differ.
Columns and labels:
leukemic cells = experiment: Assay 5: Apoptosis in leukemic cell lines (in situ Caspase 3 kit); type: cell-based; conditions: 24 hrs
Protocol: Apoptosis in leukemic cells was determined using an in situ Caspase 3 kit (Millipore, US) as outlined below: • Seed leukemic cells at a density of 1×10^6 cells/well in a 6 well plate • Add test compound/DMSO at desired concentrations • Incubate the plate for 24 hrs at 37° C. in 5% CO2 incubator • Collect cells in a 2 ml centrifuge tube • Add 1.6 μL of freshly prepared 5× FLICA reagent and mix cells by slightly flicking the tubes • Incubate tubes for 1 hour at 37° C. under 5% CO2 • Add 2 ml of 1× wash buffer to each tube and mix • Centrifuge cells at <400×g for 5 minutes at room temperature. • Carefully remove and discard supernatant, and gently vortex cell pellet to disrupt any cell-to-cell clumping. • Resuspend cell pellet in 300 ul of 1× wash buffer • Place 100 μL of each cell suspension into each of two wells of a black microtiter plate. Avoid creation of bubbles. • Read […] of each microwell using an excitation wavelength of 490 nm and an emission wavelength of 520 nm • Percent increase in caspase-3 activity manifested by an increase in fluorescence compared to the control blank is to be calculated.

[1] = test system: AML patient bone marrow leukemic cells; experiment: Assay 6-III: Cell proliferation analysis of AML patient bone marrow sample (MTS); type: cell-based, human
Protocol: 6-III: Cell proliferation analysis of AML patient bone marrow sample using MTS assay: Mononuclear cells were extracted by the Ficoll method and seeded in plates. The cells were treated by different compounds for 48 hrs and 72 hrs before they were analyzed by MTS assay following product instruction. Briefly, 20 μL of the MTS solution was added into each well containing the 100 μL cell suspension, followed by incubation for 4 hours at 37° C., in 95% humidity with presence of 5% CO2. The absorbance of 490 nm (A490) was read using SpectraMAX Plus microplate spectrophotometer.

[2] = test system: AML patient bone marrow leukemic cells; experiment: Assay 6-I: Flow cytometry analysis of apoptotic induction in AML patient bone marrow leukemic cells; type: cell-based, human
Protocol: 6-I: Flow cytometry analysis of apoptotic induction in AML patient bone marrow leukemic cells upon compound treatment using Annexin V and 7-AAD staining: Mononuclear cells were extracted by the Ficoll method and seeded in plates. The cells were treated by different compounds for 48 hrs before they were analyzed by flow cytometry. After washing with PBS, 1×10^5 cells were stained by Annexin V-APC and 7-AAD. Annexin V positive staining measures total apoptotic cells, including early and late apoptotic cells. For Annexin V positive cells, 7-AAD negative signal reflects early apoptotic cells.

[3] = test system: AKT phosphorylation in THP-1, HL-60, MOLT-4, RPMI-8226, or DLBCL cells; experiment: Assay 3: Inhibition of AKT phosphorylation in leukemic cell lines; type: cell-based; conditions: 48 hours, Western Blotting
Protocol: Inhibition of AKT phosphorylation in leukemic cell lines: THP-1, HL-60, MOLT-4, RPMI-8226, or DLBCL cells were incubated with desired concentrations of compound for 48 hours. Cells were lysed and pAKT was determined by Western Blotting. Bands were quantified using ImageJ and normalized to actin.

With CC(C)Oc1ccc(-c2nn([C@@H](C)c3oc4ccccc4c(=O)c3-c3cccc(F)c3)c3ncnc(N)c23)cc1F [Compound A1, (S)-2-(1-(4-amino-3-(3-fluoro-4-isopropoxyphenyl)-1H-pyrazolo[3,4-d]pyrimidin-1-yl)ethyl)-3-(3-fluorophenyl)-4H-chromen-4-one] the Caspase-3 activity (leukemic cells) was “dose-dependently induced Caspase-3 activity”, the “cell viability / proliferation” value [1] was “dose dependent reduction in proliferation; also recorded: Dose dependent reduction in cell viability” and the “number of apoptotic cells” value [2] was “concomitant increase in the number of apoptotic cells”. For the same compound, the “fold increase in apoptosis” value ([2]; 3 μM, 48 hrs) was ~1.5 fold increase in appotosis @ 3 μM and and the inhibition at 1 µM [3] was 50 to 90%.

— US9150579B2, “Selective PI3K delta inhibitors” (Rhizen Pharmaceuticals SA, priority 2012, dated 2015)
